From paper PMC4527731, “Calcineurin Undergoes a Conformational Switch Evoked via Peptidyl-Prolyl Isomerization” (PLoS ONE, 2015)

Legend:
[1] = test system: Flag-CNA 2–389 / GST-NFATc2 interaction; test: GST-NFATc2 pull-down competition assay; type: binding; settings: HEK 293T cells transfected with FLAG–CNA (2–389); soluble extracts with GST–NFATc2 beads 60 min at 4°C; increasing peptide concentrations (Fig 6c)
Protocol: (§1) In GST-RCAN3 pull-down competition assays, HEK 293T cells were lysed in co-immunoprecipitation buffer (50 mM Tris–HCl, pH 7.5, 100 mM NaCl, 2 mM CaCl2, 5 mM MgCl2, 1% IGEPAL, 1 mM DTT, 2 mM PMSF and protease and phosphatase inhibitor cocktails) and the CNA- and the RCAN3-derived peptides containing a PxIxIT sequence were added to the extracts at the indicated concentrations for 30 min. Then, the soluble extracts were incubated with GST–RCAN3 bound to Glutathione Sepharose beads for 90 min at 4°C. After extensive washing, co-precipitated proteins were eluted by resuspension in 2× Laemmli buffer and boiled for 10 min. For GST–NFATc2 pull-down competition assays, HEK 293T cells transfected with FLAG–CNA (2–389) were lysed in a buffer containing 50 mM Tris–HCl, pH 8, 100 mM NaCl, 1.5 mM CaCl2, 6 mM MgCl2, 0.2% TX-100, 1 mM PMSF and protease and phosphatase inhibitor cocktails. Soluble extracts were incubated with GST–NFATc2 bound to Glutathione Sepharose beads for 60 min at 4°C.

[2] = test system: CNA (human CNAα catalytic domain); test: Fluorescence polarization competition of CF-SPRIEIT-CNA complex; type: binding; settings: 10 nM CF-labeled SPRIEIT, 10 μM CNA, unlabeled competitor pre-incubated 15 min at increasing concentrations, room temperature, ex 485 nm, em 535 nm, two independent experiments in triplicates (Fig 6a)
Protocol: Peptides were purchased from the Peptide 2.0 Company (Chantilly, VA) and synthesized as acetylated N-terminal and C-terminal amides for the unlabeled peptides and N-carboxyfluorescein (CF) and C-terminal amide for the labelled peptide. The sequences of the peptides used are the following: […] for the RCAN^183–203 peptide; […] for the cis-CNA derived peptide; and […] for the NFATc2-SPRIEIT (SPRIEIT) peptide. All peptides were resuspended in 100% DMSO at 10 mM. Cyclosporin A (CsA) was obtained from Sandoz. Ionomycin (Io) sodium salt and Phorbol 12-myristate 13-acetate sodium salt (PMA) were obtained from Sigma. The anti-calcineurin A antibody was purchased from BD Biosciences and the anti-Flag M2 antibody was purchased from Sigma. The protease and phosphatase inhibitor cocktails were from Calbiochem.
Expression, purification and isolation of the CNAα domain was performed as previously described. […]
Competition assays were performed as described. […] Unlabeled competitor peptides were pre-incubated with CNA at increasing concentrations for 15 min before adding the fluorescence labeled peptide. Experiments were performed in a OptiPlate black 384-well-flat-bottom plates (PerkinElmer Life Sciences, Waltham, MA) and measured using a Wallac VICTOR (TM) X5 2030 Multilabel Reader (PerkinElmer Life Sciences) with excitation and emission wavelengths of 485 nm and 535 nm respectively. […]

[3] = test system: Endogenous CNA / GST-RCAN3 interaction; test: GST-RCAN3 pull-down competition assay; type: binding; settings: HEK 293T lysate, peptide at increasing concentrations for 30 min, then GST–RCAN3 beads 90 min at 4°C (Fig 6b)
Protocol: as §1

[4] = test system: Endogenous CN in HEK 293T cells; test: Inhibition of endogenous CN activity by CsA in NFATc-luciferase reporter assay; type: cell-based; settings: 1 μM CsA, 30 min before stimulation with Io/PMA/Ca^2+ for 6 hours
Protocol: Flag-hCNAα mutants were performed by PCR using CN specific primers (Table 2). ΔNIR mutant lacks the CNA PXIXIT binding region VMNIR ranging from amino acids 328 to 332. All Flag-CNA constructs bear the Y341F mutation to achieve CsA resistance unless for the specified wt. Luciferase gene assays were performed in HEK 293T cells transfected with 100 ng of 3xNFAT-luc plasmid, 100 ng of pBJ5-mCNB, 1 ng of pRLNull as an internal transfection control and 400 ng of the indicated Flag-hCNAα mutants constructs. Stimulation was achieved by treating the cells with.1 μM ionomycin, 10 nM PMA and 10 mM CaCl2. Endogenous CN activity was abolished by treating cells with 1 μM Cyclosporin A (CsA) 30 min prior to stimulation. FK506 was used as a positive control for CsA-resistant CN. After 6h of cell stimulation, 10 μl of cell extract were analyzed for luciferase gene expression using the Dual-Luciferase Reporter Assay (Promega) following the manufacturer’s protocol on a multiplate luminometer (FLUOstar Optima, BMG). Luciferase units were normalized to densitometric data of 10 μl of cell extract analyzed by western blot. Absence of cell stimulation is shown with a minus symbol (-). Three experiments were performed with triplicates. Stimulation of the Y341F mutant was considered as 100% value.

[5] = molecular target: T1, catalytic domain of human CNAα (residues 2–347) (human, UniProt Q08209-1 2-347); test: fluorescence polarisation; competition: 10 nM CF-labeled SPRIEIT peptide and 10 μM CNA; unlabeled competitor peptides pre-incubated with CNA at increasing concentrations for 15 min; room temperature; settings: both partners purified
T1 construct: calcineurin catalytic subunit A, alpha isoform, human, NCBI NP_000935.1, catalytic domain residues 2-347; also called CNAα catalytic domain; trans-CNA; source: from the pGEX-6P-1-CNAα plasmid
T1 sequence (Q08209 2-347): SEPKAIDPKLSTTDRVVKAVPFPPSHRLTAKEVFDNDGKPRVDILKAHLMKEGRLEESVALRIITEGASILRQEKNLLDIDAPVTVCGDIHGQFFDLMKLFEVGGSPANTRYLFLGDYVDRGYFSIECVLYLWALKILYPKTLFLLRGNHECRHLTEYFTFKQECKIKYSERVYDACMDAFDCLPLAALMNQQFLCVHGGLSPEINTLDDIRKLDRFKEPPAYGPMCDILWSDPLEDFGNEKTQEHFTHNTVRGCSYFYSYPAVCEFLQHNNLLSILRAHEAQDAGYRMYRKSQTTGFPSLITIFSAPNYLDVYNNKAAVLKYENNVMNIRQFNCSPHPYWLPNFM

Molecule: NNKAAVLKYE
- interference with CN–GST-NFATc2 interaction (pull down) [1]: does not interfere with high affinity interactions
- interference with CN–SPRIEIT peptide interaction (fluorescence polarization competition) [2]: does not interfere with high affinity interactions
- interference with CN–GST-RCAN3 interaction (pull down) [3]: does not interfere with high affinity interactions

Molecule: Cyclosporin A [CsA]
- endogenous CN activity after CsA treatment [4]: abolished

Molecule: KYELHAGTESTPSVVVHVCES [R3^183-203, RCAN3-derived PxIxIT-containing peptide (amino acids 183–203)]
- interference with CN–GST-NFATc2 interaction (pull down) [1]: able to disrupt CN interaction with proteins containing a PxIxIT motif
- interference with CN–SPRIEIT peptide interaction (fluorescence polarization competition) [2]: able to disrupt CN interaction with proteins containing a PxIxIT motif
- interference with CN–GST-RCAN3 interaction (pull down) [3]: able to disrupt CN interaction with proteins containing a PxIxIT motif

B1: RCAN3-derived PxIxIT-containing peptide (amino acids 183–203) (peptide)
peptide: Ac-KYELHAGTESTPSVVVHVCES-NH2
notes: source: synthetic peptide, bought: Peptide 2.0 Company
- binding result [5]: binds
